According to PMC10384572, “Marine Meroterpenoids Isolated from Gongolaria abies-marina Induce Programmed Cell Death in Naegleria fowleri” (Pharmaceuticals, 2023):

Columns and labels:
[1] = In vitro cytotoxicity against murine macrophages (alamarBlue); assay type: cell-based; details: mouse, J774A.1 murine macrophages (ATCC TIB-67), murine macrophages J774A.1, 24 h, mean ± SD
Experimental: Murine macrophages from the J774A.1 cell line (ATCC® TIB-67) were maintained in Dulbecco’s Modified Eagle’s medium (DMEM) in order to evaluate the toxicity of the compounds. In addition, 10% (v/v) FBS and 10 μg/mL gentamicin (Sigma-Aldrich, Madrid, Spain) were added to the growth medium. Cells were grown in a 5% CO2 atmosphere at 37 °C.
For the cytotoxicity assays, the same protocol as detailed in Section 4.4 above was used. Murine macrophages were incubated with serial dilutions of the evaluated compounds at 37 °C in a 5% CO2 atmosphere over 24 h. The obtained data were analyzed as described in the previous section in order to calculate the CC50.
(§1) The in vitro IC50, IC90, and CC50 of the compounds were determined by a non-linear regression with a 95% confidence limit. The SigmaPlot 12.0 software (Systat Sofware Inc., London, UK) was used to perform the data analysis using a paired two-tailed t-test. Values of p < 0.05 were considered significant. The data represent the mean value and the SD of the conducted three different experiments.

N. fowleri ATCC® 30215 = assay: In vitro activity against N. fowleri trophozoites (alamarBlue), strain ATCC 30215; assay type: cell-based; details: Naegleria fowleri, ATCC30215, 48 h, mean ± SD
Experimental: (§2) The in vitro activity against N. fowleri trophozoites was evaluated in two different strains from the American Type Culture Collection (LG Promochem, Barcelona, Spain), ATCC® 30808™ and ATCC® 30215™. Cells were axenically grown in 2% Bactocasitone (w/v) medium (Thermo Fisher Scientific, Madrid, Spain) at 37 °C. Moreover, 10% (v/v) of fetal bovine serum (FBS) 0.3 μg/mL of Penicillin G Sodium Salt and 0.5 mg/mL of Streptomycin sulphate (Sigma-Aldrich, Madrid, Spain) were also added to the Bactocasitone medium.
(§3) For these assays, a colorimetric assay was conducted using the alamarBlue® reagent. Briefly, N. fowleri trophozoites were seeded in duplicate in a 96-well microtiter plate. After that, different concentrations of the evaluated meroterpenoids diluted in fresh Bactocasitone were added to the wells. The negative control consisted on the trophozoites incubated with the medium alone. Lastly, the alamarBlue® (Life Technologies, Madrid, Spain) reagent was added. Plates were incubated in slight agitation at 37 °C. After 48 h, the fluorescence of the wells was analyzed in an EnSpire Multimode Plate Reader (Perkin Elmer, Madrid, Spain) using a wavelength of excitation of 570 nm and a wavelength of emission of 585 nm.
(§4) In order to calculate the IC50 and IC90, a nonlinear regression analysis with a 95% confidence limit was performed.
as §1

N. fowleri ATCC® 30808 = assay: In vitro activity against N. fowleri trophozoites (alamarBlue), strain ATCC 30808; assay type: cell-based, Naegleria fowleri; details: for IC50: Naegleria fowleri, ATCC30808, N. fowleri trophozoites, 48 h, alamarBlue, mean ± SD, read-out: IC50 ATCC® 30808; for Anti-Naegleria activity (in words): both tested strains of N. fowleri
Experimental: as §2, §3, §4, §1

Acanthamoeba = tested on: Acanthamoeba; set-up: method as in PMID 36916403; details: cited from earlier work

| IC50 (N. fowleri ATCC® 30215) | IC50 (N. fowleri ATCC® 30808) | Structure (SMILES) | CC50 at 24 h [1] | Activity against tested species of Acanthamoeba (in words) (Acanthamoeba) | Anti-Naegleria activity (in words) (N. fowleri ATCC® 30808) | Anti-Naegleria activity (in words) (N. fowleri ATCC® 30808; listed as 5) | Anti-Naegleria activity (in words) (N. fowleri ATCC® 30808; listed as gongolarone C (5)) |
| --- | --- | --- | --- | --- | --- | --- | --- |
| 0.16 ± 0.03 µM | 0.12 ± 0.03 µM | C[C@@H]1[C@H](O)[C@@H](C)/C=C/C=C/C=C/C=C/C=C/C=C/C=C/[C@H](O[C@@H]2O[C@H](C)[C@@H](O)[C@H](N)[C@@H]2O)C[C@@H]2O[C@](O)(C[C@@H](O)C[C@@H](O)[C@H](O)CC[C@@H](O)C[C@@H](O)CC(=O)O[C@H]1C)C[C@H](O)[C@H]2C(=O)O [Amphotericin B, amphotericin B, reference compound] | > 200 µM | – | – | – | – |
| – | > 100 µM | COc1c(C)cc(O)cc1C/C=C(\C)CC(=O)/C=C(\C)CCC[C@@H](C)[C@H]1C[C@@H](O)C(C)(C)O1 [Gongolarone A (4), gongolarone A] | > 400 µM | most active | no anti-Naegleria activity | – | – |
| – | > 100 µM | COc1c(C)cc(O)cc1CC/C(C)=C/C(=O)/C=C(\C)CCC[C@@H](C)C(=O)/C=C/C(C)(C)O [Gongolarone C (5), gongolarone C] | > 400 µM | most active | – | no anti-Naegleria activity | loss of activity |
| 81.6 ± 7.23 µM | 38.7 ± 4.23 µM | CCCCCCCCCCCCCCCCOP(=O)([O-])OCC[N+](C)(C)C [Miltefosine, miltefosine, reference compound] | 128 ± 8.85 µM | – | – | – | – |
